Assay results taken from publication PMC6853232, “Discovery and evaluation of novel synthetic 5-alkyl-4-oxo-4,5-dihydro-[1,2,4]triazolo[4,3-a]quinoxaline-1-carbox-amide derivatives as anti-inflammatory agents” (Journal of Enzyme Inhibition and Medicinal Chemistry, 2019).
“And” between values parts separate entries of the source, which are not always exact repeats. Equal entries are not always repeated.

Legend:
[1] = MTT assay for cell viability; assay type: cell-based, mouse; settings: mouse, RAW264.7 macrophage cells, 24 h, RAW264.7 cells
Experimental: The RAW 264.7 mouse macrophage cell line was obtained from the China Cell Line Bank (Beijing, China). Cells were cultured in complete medium (DMEM supplemented with 10% heat-inactivated FBS, 3 mM glutamine and antibiotics (100 U/mL penicillin and 100 U/mL streptomycin)) at 37 °C in a humidified incubator containing 5% CO2 and 95% air. […]
Cell viability studies induced by synthesised compounds were evaluated by 3-(4,5-dimethylthiazol-2-yl)-2,5-diphenyltetrazolium bromide (MTT) assay. RAW264.7 macrophages were seeded in 96-well plates at a density of 5 × 10^5 cells/mL in complete medium and incubated for 24 h (100 µL/well). Then the cells were treated with different concentrations of synthesised compounds for 24 h. 150 µL MTT (5 g/L in PBS) was added to each well and the cells were further incubated for 4 h. The supernatant was removed and the cells were lysed with 150 µL/well DMSO. The optical density was measured at 570 nm on a microplate reader (Thermo Scientific, MA, USA).

[2] = tested on: carrageenan-induced paw oedema; assay: Carrageenan-induced paw oedema model; assay type: in vivo, rats; settings: 25 mg/kg p.o., n = 4
Description: The animal procedures were in strict accordance with the National Institutes of Healthy Guidelines for the Care and Use of Laboratory Animals (NIH Publication No. 85-23, revised 1996) and were approved by the Institutional Animal Care and Utilisation Committee of Yanbian University. Male albino rats weighing 280–300 gwere obtained from Animal Department of Yanbian University . They were kept in the animal house under standard condition of light and temperature with free access to food and water. The animals were randomly divided into five groups (control, D1, 6p, ibuprofen and celecoxib group) The groups with D1, 6p, ibuprofen and celecoxib were administered oral administration (p.o.) 25 mg/kg in a vehicle of 0.5% methylcellulose, respectively. The negative control group was treated with the same vehicle (0.5% methylcellulose). A solution of carrageenan (0.1 ml, 1.0% w/v in 0.9% of normal saline) was injected into the subplanter region of the left hind paw under light ether anaesthesia 1 h after oral administration (p.o.) of the test compound (at a dose level of 25 mg/kg body weight). The paw volume was measured at hourly interval for 5 h (0, 1, 3 and 5 h) and the percent inhibition of oedema was calculated using formula: %Inhibition=(Vt−Vo)control−(Vt−Vo)tested compound /(Vt−Vo)control×100 where, • Vo = volume of oedema at zero time interval. • Vt = volume of oedema at specific time interval.

[3] = tested on: LPS-induced NO production in RAW264.7 macrophages; assay: Inhibition of LPS-induced NO production (Griess); assay type: cell-based, mouse; settings: 10 µM
Experimental: The RAW 264.7 mouse macrophage cell line was obtained from the China Cell Line Bank (Beijing, China). Cells were cultured in complete medium (DMEM supplemented with 10% heat-inactivated FBS, 3 mM glutamine and antibiotics (100 U/mL penicillin and 100 U/mL streptomycin)) at 37 °C in a humidified incubator containing 5% CO2 and 95% air. Cells were treated with various concentrations of synthesised compounds for 30 min followed by stimulation with LPS ([…]).
Nitrite, a stable product of nitric oxide, was used to assess NO production. To study the effects of the isolated compounds on NO production, RAW264.7 cells were plated at 1 × 10^5 cells/well in a 96-well microplate and incubated overnight. The cells were pre-treated with various concentrations of the test compounds (3, 7.5, 10, 15, 30 or 100 µM) and further co-cultured with 1 µg/mL LPS for 24 h. Un-pre-treated and un-stimulated RAW 264.7 cells were conducted as the blank control group. At different time points, the supernatant (50 µL) was assayed with NO assay kit. The culture supernatant (50 µL) was mixed with an equal volume of the Griess reagent (1% sulphanilamide, 0.1% N-[1-naphthy] ethylenediamine dihydrochloride) and NO production were determined at 540 nm with an ELISAplate reader.

[4] = tested on: gastric mucosa (stomach lesions); assay: Ulcerogenic effect; assay type: in vivo; settings: 25 mg/kg p.o. once a day for three days, rats
Experimental: The lead compound D1 and the newly synthesised compound 6p were subjected to in vivo testing to measure their ulcerogenic effect in comparison to celecoxib and ibuprofen. Male albino rats (220–250 g) divided into 5 groups (control, D1, 6p, ibuprofen and celecoxib group) of five rats each. The groups with D1, 6p, ibuprofen, and celecoxib were administered oral administration (p.o.) 25 mg/kg in a vehicle of 0.5% methylcellulose, respectively. The negative control group was treated with the same vehicle (0.5% methylcellulose). All groups were orally administered once a day for three consecutive days. Animals were sacrificed by diethyl ether 6 h after the last dose and the stomach was removed. An opening at the greater curvature was made and the stomach was cleaned by washing with cold saline and inspected with a three-time magnifying lens for any evidence of hyperaemia, haemorrhage, definite haemorrhagic erosion, or ulcer. An arbitrary scale was used to calculate the ulcer index which indicates the severity of the stomach lesions The % ulceration for each group was calculated as follows: % Ulceration = Number of animals bearing ulcer in a group/Total number of animals in the same group ×100.

Row | Structure (SMILES) | melting point | viability at 24 h, 30 µM [1] | viability at 24 h, 10 µM [1] | further results
1 | NC(=O)c1nnc2c(=O)n(Cc3cccc(C(F)(F)F)c3)c3ccccc3n12 [6r, 5-(3-(Trifluoromethyl)benzyl)-4-oxo-4,5-dihydro-[1,2, 4]triazolo[4,3-a]quinox-aline-1-carboxamide] | 262 to 264 °C | 99.3 ± 0.6% |  | 
2 | NC(=O)c1nnc2c(=O)n(Cc3ccccc3)c3ccccc3n12 [6g, 5-benzyl-4-oxo-4,5-dihydro-[1,2, 4]triazolo[4,3-a]quinoxaline-1-carboxamide] | 268 to 270 °C | 85 ± 1% |  | 
3 | NC(=O)c1nnc2c(=O)n(Cc3ccc(Cl)cc3)c3ccccc3n12 [6m, 5-(4-chlorobenzyl)-4-oxo-4,5-dihydro-[1,2, 4]triazolo[4,3-a]quinoxaline-1-carboxamide] | 282 to 284 °C | 44.7 ± 3.06% | 82.2 ± 1.74% | 
4 | Cc1cccc(Oc2nn3c(C(N)=O)nnc3c3ccccc23)c1 [D1] |  | 96.3 ± 1.72% |  | % of oedema inhibition (% mean ± SD) ([2]; 1 h): 38.26 ± 2.82%; % of oedema inhibition (% mean ± SD) ([2]; 3 h, 25 mg/kg): 42.81% and 42.81 ± 2.11%; % of oedema inhibition (% mean ± SD) ([2]; 5 h): 28.71 ± 2.92%; inhibition at 10 µM ([3]; Mus musculus, RAW264.7, LPS 1 µg/mL, 24 h, read-out: NO inhibitory activity (% inhibition)): 10.3%; % ulceration [4]: 20%
5 | CCCCCn1c(=O)c2nnc(C(N)=O)n2c2ccccc21 [6b, 5-pentyl-4-oxo-4,5-dihydro-[1,2, 4]triazolo[4,3-a]quinoxaline-1-carboxamide] | 232 to 234 °C | 98 ± 1.1% |  | 
6 | COc1ccc(Cn2c(=O)c3nnc(C(N)=O)n3c3ccccc32)cc1 [6o, 5-(4-methoxybenzyl)-4-oxo-4,5-dihydro-[1,2, 4]triazolo[4,3-a]quinoxaline-1-carboamide] | 264 to 266 °C | 80.1 ± 1% |  | 
7 | NC(=O)c1nnc2c(=O)n(Cc3ccccc3Cl)c3ccccc3n12 [6k, 5-(2-chlorobenzyl)-4-oxo-4,5-dihydro-[1,2, 4]triazolo[4,3-a]quinoxaline-1-carboxamide] | 278 to 280 °C | 46.3 ± 2.89% | 74.6 ± 1.38% | 
8 | CCCCn1c(=O)c2nnc(C(N)=O)n2c2ccccc21 [6a, 5-butyl-4-oxo-4,5-dihydro-[1,2, 4]triazolo[4,3-a]quinoxaline-1-carboxamide] | 262 to 264 °C | 92.3 ± 1.53% |  | 
9 | NC(=O)c1nnc2c(=O)n(Cc3ccc([N+](=O)[O-])cc3)c3ccccc3n12 [6s, 5-(4-nitrobenzyl)-4-oxo-4,5-dihydro-[1,2, 4]triazolo[4,3-a]quinoxaline-1-carb-oxamide] | 273 to 275 °C | 80.1 ± 1.34% |  | 
10 | N#Cc1ccc(Cn2c(=O)c3nnc(C(N)=O)n3c3ccccc32)cc1 [6t, 5-(4-cyanobenzyl)-4-oxo-4,5-dihydro-[1,2, 4]triazolo[4,3-a]quinoxaline-1-carboxamide] | 298 to 300 °C | 90.3 ± 1.21% |  | 
11 | Cc1ccc(-c2cc(C(F)(F)F)nn2-c2ccc(S(N)(=O)=O)cc2)cc1 [Celecoxib] |  |  |  | % of oedema inhibition (% mean ± SD) ([2]; 1 h): 48.09 ± 5.33%; % of oedema inhibition (% mean ± SD) ([2]; 3 h, 25 mg/kg): 58.34 ± 4.08%; % of oedema inhibition (% mean ± SD) ([2]; 3 h, listed as celecoxib, 25 mg/kg): 58.34%; % of oedema inhibition (% mean ± SD) ([2]; 5 h): 41.92 ± 2.05%
12 | CCCCCCn1c(=O)c2nnc(C(N)=O)n2c2ccccc21 [6c, 5-hexyl-4-oxo-4,5-dihydro-[1,2, 4]triazolo[4,3-a]quinoxaline-1-carboxamide] | 239 to 241 °C | 99.11 ± 0.69% |  | 
13 | NC(=O)c1nnc2c(=O)n(Cc3ccc(F)cc3)c3ccccc3n12 [6j, 5-(4-fluorobenzyl)-4-oxo-4,5-dihydro-[1,2, 4]triazolo[4,3-a]quinoxaline-1-carboxamide] | 274 to 276 °C | 48 ± 3% | 73.5 ± 2.27% | 
14 | COc1cccc(Cn2c(=O)c3nnc(C(N)=O)n3c3ccccc32)c1 [6n, 5-(3-methoxybenzyl)-4-oxo-4,5-dihydro-[1,2, 4]triazolo[4,3-a]quinoxaline-1-carboxamide] | 266 to 268 °C | 93.33 ± 0.58% |  | 
15 | CCCCCCCCCn1c(=O)c2nnc(C(N)=O)n2c2ccccc21 [6f, 5-nonyl-4-oxo-4,5-dihydro-[1,2, 4]triazolo[4,3-a]quinoxaline-1-carboxamide] | 236 to 238 °C | 60 ± 3.4% | 99.2 ± 1.65% | 
16 | NC(=O)c1nnc2c(=O)n(Cc3ccc(Cl)cc3Cl)c3ccccc3n12 [6q, 5-(2,4-dichlorobenzyl)-4-oxo-4,5-dihydro-[1,2, 4]triazolo[4,3-a]quinoxaline-1-carboxamide] | 266 to 268 °C | 56.7 ± 1.34% | 84.7 ± 6.49% | 
17 | CC(C)Cc1ccc(C(C)C(=O)O)cc1 (stereo not shown) [Ibuprofen] |  |  |  | % of oedema inhibition (% mean ± SD) ([2]; 1 h): 31.92 ± 5.76%; % of oedema inhibition (% mean ± SD) ([2]; 3 h, 25 mg/kg): 39.30 ± 4.86%; % of oedema inhibition (% mean ± SD) ([2]; 3 h, listed as ibuprofen, 25 mg/kg): 39.30%; % of oedema inhibition (% mean ± SD) ([2]; 5 h): 25.29 ± 3.43%
18 | NC(=O)c1nnc2c(=O)n(Cc3cccc(F)c3)c3ccccc3n12 [6i, 5–(3-fluorobenzyl)-4-oxo-4,5-dihydro-[1,2, 4]triazolo[4,3-a]quinoxaline-1-carboxamide] | 276 to 278 °C | 59.3 ± 2.52% | 99.5 ± 4.17% | 
19 | NC(=O)c1nnc2c(=O)n(Cc3ccccc3F)c3ccccc3n12 [6h, 5-(2-fluorobenzyl)-4-oxo-4,5-dihydro-[1,2, 4]triazolo[4,3-a]quinoxaline-1-carboxamide] | 273 to 275 °C | 66.7 ± 1.33% | 98.5 ± 1.76% | 
20 | NC(=O)c1nnc2c(=O)n(Cc3cccc(Cl)c3)c3ccccc3n12 [6l, 5-(3-chlorobenzyl)-4-oxo-4,5-dihydro-[1,2, 4]triazolo[4,3-a]quinoxaline-1-carboxamide] | 269 to 271 °C | 51.7 ± 2.12% | 87.9 ± 5.18% | 
21 | CCCCCCCn1c(=O)c2nnc(C(N)=O)n2c2ccccc21 [6d, 5-heptyl-4-oxo-4,5-dihydro-[1,2, 4]triazolo[4,3-a]quinoxaline-1-carboxamide] | 231 to 233 °C | 81 ± 1.1% |  | 
22 | CCCCCCCCn1c(=O)c2nnc(C(N)=O)n2c2ccccc21 [6e, 5-octyl-4-oxo-4,5-dihydro-[1,2, 4]triazolo[4,3-a]quinoxaline-1-carboxamide] | 230 to 232 °C | 99.5 ± 2.3% |  | anti-inflammatory activity (NO) within 5-alkyl derivatives 6a–6f ([3]; SAR ranking): the most active
